“And” between values parts separate entries of the source, which are not always exact repeats. Equal values may be shown once. Where a SMILES comes first, the peptide text is derived from it. [ ]: non-standard residue; d: D form. The star is where a group is joined. Trolox = Cc1c(C)c2c(c(C)c1O)CCC(C)(C(=O)*)O2; Cha = N[CH](CC1CCCCC1)C(=O)O
Experiments:
Fibronectin = type: cell-based, mouse
[1] = system: collagen type I alpha 1 (Col1a1); type: cell-based, mouse
Elastin = type: cell-based, mouse
[2] = system: neuroblastoma-derived cell line (SH-SY5Y); type: cell-based
Sprague-Dawley rats = conditions: rat, in vivo

CCC(C)C(NC(=O)C(CC(C)C)NC(=O)C(CC1CCCCC1)NC(=O)C(CCCCN)NC(=O)C1(C)CCc2c(C)c(O)c(C)c(C)c2O1)C(=O)NC(CCCCN)C(=O)O (stereo not drawn) [trolox-peptide conjugate] (Trolox-K[Cha]LIK-OH; configuration not given here)
expression level of fibronectin (Fibronectin): significantly increased
expression level of collagen (Col1a1) [1]: significantly increased
expression level of elastin (Elastin): significantly increased
release of acetylcholine [2]: significantly inhibited
DAS Score (Sprague-Dawley rats): 4 and 2 and 3
duration of the muscle relaxation effect (Sprague-Dawley rats): lasted longer

Source: US20240285780A1 (priority 2020, published 2024)
